Source: PubChem BioAssay AID2060500 (Molecular Pharmacology Branch, DTP, NCI, 2025)
pIC50: −log10 of the molar value.

System: 596521-263-R-J1-PDC complex spheroids, viability % of control
Experiment: Anticancer human tumor 596521-263-R-J1-PDC patient-derived soft tissue sarcoma cell line growth inhibition [GQUAD]
Conditions: for pIC50: curve of first compound; for viability, T/C: stronger effect = lower value
How it was run: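 Viability of tumor cells grown as complex spheroids with endothelial and stromal cells, exposed to drug combinations. Top concentration at or near clinical Cmax (else 10 microM), diluted in half-log increments.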

[1] = second compound 0.0316 µM, first compound 0.0316 µM
[2] = second compound 0.0316 µM, first compound 0.1 µM
[3] = second compound 0.0316 µM, first compound 0.316 µM
[4] = second compound 0.0316 µM, first compound 1 µM
[5] = second compound 0.0316 µM, first compound 3.16 µM
[6] = second compound 0.0316 µM, first compound 10 µM
[7] = second compound 0.1 µM, first compound 0.0316 µM
[8] = second compound 0.1 µM, first compound 0.1 µM
[9] = second compound 0.1 µM, first compound 0.316 µM
[10] = second compound 0.1 µM, first compound 1 µM
[11] = second compound 0.1 µM, first compound 3.16 µM
[12] = second compound 0.1 µM, first compound 10 µM
[13] = second compound 0.316 µM, first compound 0.0316 µM
[14] = second compound 0.316 µM, first compound 0.1 µM
[15] = second compound 0.316 µM, first compound 0.316 µM
[16] = second compound 0.316 µM, first compound 1 µM
[17] = second compound 0.316 µM, first compound 3.16 µM
[18] = second compound 0.316 µM, first compound 10 µM
[19] = second compound 1 µM, first compound 0.0316 µM
[20] = second compound 1 µM, first compound 0.1 µM
[21] = second compound 1 µM, first compound 0.316 µM
[22] = second compound 1 µM, first compound 1 µM
[23] = second compound 1 µM, first compound 3.16 µM
[24] = second compound 1 µM, first compound 10 µM
[25] = second compound 3.16 µM, first compound 0.0316 µM
[26] = second compound 3.16 µM, first compound 0.1 µM
[27] = second compound 3.16 µM, first compound 0.316 µM
[28] = second compound 3.16 µM, first compound 1 µM
[29] = second compound 3.16 µM, first compound 3.16 µM
[30] = second compound 3.16 µM, first compound 10 µM
[31] = second compound 10 µM, first compound 0.0316 µM
[32] = second compound 10 µM, first compound 0.1 µM
[33] = second compound 10 µM, first compound 0.316 µM
[34] = second compound 10 µM, first compound 1 µM
[35] = second compound 10 µM, first compound 3.16 µM
[36] = second compound 10 µM, first compound 10 µM
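Also: spheroids exposed to drugs for 7 days before viability reading.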
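For viability, T/C in this document: 100% = DMSO vehicle control viability.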

C=CC(=O)N1CCN(c2nc(=O)n(-c3c(C)ccnc3C(C)C)c3nc(-c4c(O)cccc4F)c(F)cc23)C(C)C1 (stereo not drawn) + Cc1[nH]c2ccc(F)cc2c1-c1nc2c3cccnc3c3ncccc3c2[nH]1
pIC50 (second compound 0.0316 µM): < 5.00
pIC50 (second compound 0.1 µM): < 5.00
pIC50 (second compound 0.316 µM): < 5.00
pIC50 (second compound 1 µM): < 5.00
pIC50 (second compound 3.16 µM): < 5.00
pIC50 (second compound 10 µM): < 5.00
viability, T/C [1]: 91.6%
viability, T/C [2]: 102%
viability, T/C [3]: 98%
viability, T/C [4]: 100%
viability, T/C [5]: 103%
viability, T/C [6]: 69.3%
viability, T/C [7]: 97%
viability, T/C [8]: 97.1%
viability, T/C [9]: 95.2%
viability, T/C [10]: 107%
viability, T/C [11]: 90.8%
viability, T/C [12]: 67.8%
viability, T/C [13]: 91.5%
viability, T/C [14]: 108%
viability, T/C [15]: 89.5%
viability, T/C [16]: 99.7%
viability, T/C [17]: 89.8%
viability, T/C [18]: 67%
viability, T/C [19]: 95.6%
viability, T/C [20]: 82.5%
viability, T/C [21]: 99.8%
viability, T/C [22]: 97.5%
viability, T/C [23]: 90.8%
viability, T/C [24]: 75.8%
viability, T/C [25]: 90.7%
viability, T/C [26]: 88.2%
viability, T/C [27]: 91.9%
viability, T/C [28]: 95.1%
viability, T/C [29]: 90.8%
viability, T/C [30]: 73.3%
viability, T/C [31]: 71%
viability, T/C [32]: 72%
viability, T/C [33]: 83.1%
viability, T/C [34]: 72.1%
viability, T/C [35]: 85.3%
viability, T/C [36]: 56.4%

CC1COCCN1c1cc(-c2ccnn2C)c2ccnc(-c3ccn[nH]3)c2n1 (stereo not drawn) + Cc1cnc(CNC(=O)c2c(=O)c3ccc(N4CCCN(C)CC4)nc3n3c2sc2ccccc23)cn1
pIC50 (second compound 0.0316 µM): 6.48
pIC50 (second compound 0.1 µM): 6.44
pIC50 (second compound 0.316 µM): 6.72
pIC50 (second compound 1 µM): 7.20
pIC50 (second compound 3.16 µM): 7.04
pIC50 (second compound 10 µM): > 7.50
viability, T/C [1]: 55.9%
viability, T/C [2]: 55.6%
viability, T/C [3]: 48.3%
viability, T/C [4]: 42.5%
viability, T/C [5]: 27.4%
viability, T/C [6]: 23.2%
viability, T/C [7]: 53.1%
viability, T/C [8]: 65.6%
viability, T/C [9]: 47%
viability, T/C [10]: 41.8%
viability, T/C [11]: 29.7%
viability, T/C [12]: 28.1%
viability, T/C [13]: 57.4%
viability, T/C [14]: 51.3%
viability, T/C [15]: 49%
viability, T/C [16]: 41.2%
viability, T/C [17]: 33%
viability, T/C [18]: 25.1%
viability, T/C [19]: 52.2%
viability, T/C [20]: 47.8%
viability, T/C [21]: 42.9%
viability, T/C [22]: 34%
viability, T/C [23]: 26.8%
viability, T/C [24]: 26.6%
viability, T/C [25]: 49.8%
viability, T/C [26]: 52.3%
viability, T/C [27]: 45.3%
viability, T/C [28]: 38%
viability, T/C [29]: 29.4%
viability, T/C [30]: 21.2%
viability, T/C [31]: 39.7%
viability, T/C [32]: 35%
viability, T/C [33]: 33.3%
viability, T/C [34]: 30.4%
viability, T/C [35]: 25%
viability, T/C [36]: 14.1%

CC1COCCN1c1cc(C2(O)CC3CCC(C2)O3)c2cnn(-c3ccn[nH]3)c2n1 (stereo not drawn) + Cc1[nH]c2ccc(F)cc2c1-c1nc2c3cccnc3c3ncccc3c2[nH]1
pIC50 (second compound 0.0316 µM): 6.55
pIC50 (second compound 0.1 µM): 6.57
pIC50 (second compound 0.316 µM): 6.68
pIC50 (second compound 1 µM): 6.49
pIC50 (second compound 3.16 µM): 6.63
pIC50 (second compound 10 µM): 6.88
viability, T/C [1]: 68.8%
viability, T/C [2]: 56.8%
viability, T/C [3]: 52.6%
viability, T/C [4]: 32.8%
viability, T/C [5]: 23%
viability, T/C [6]: 12.4%
viability, T/C [7]: 77.5%
viability, T/C [8]: 60.1%
viability, T/C [9]: 48.9%
viability, T/C [10]: 35.1%
viability, T/C [11]: 25.6%
viability, T/C [12]: 14.6%
viability, T/C [13]: 64.8%
viability, T/C [14]: 54.1%
viability, T/C [15]: 48.8%
viability, T/C [16]: 34.2%
viability, T/C [17]: 25.3%
viability, T/C [18]: 13.1%
viability, T/C [19]: 72.4%
viability, T/C [20]: 62.7%
viability, T/C [21]: 52%
viability, T/C [22]: 33.8%
viability, T/C [23]: 25.6%
viability, T/C [24]: 16.1%
viability, T/C [25]: 63.9%
viability, T/C [26]: 59.4%
viability, T/C [27]: 47%
viability, T/C [28]: 32.2%
viability, T/C [29]: 26%
viability, T/C [30]: 14.9%
viability, T/C [31]: 54.4%
viability, T/C [32]: 55%
viability, T/C [33]: 42.4%
viability, T/C [34]: 27.6%
viability, T/C [35]: 25.3%
viability, T/C [36]: 14.2%

O=C(NO)c1cnc(N2CCN(S(=O)(=O)c3ccc4ccccc4c3)CC2)nc1 + Cc1[nH]c2ccc(F)cc2c1-c1nc2c3cccnc3c3ncccc3c2[nH]1
pIC50 (second compound 0.0316 µM): > 7.50
pIC50 (second compound 0.1 µM): > 7.50
pIC50 (second compound 0.316 µM): > 7.50
pIC50 (second compound 1 µM): > 7.50
pIC50 (second compound 3.16 µM): > 7.50
pIC50 (second compound 10 µM): > 7.50
viability, T/C [1]: 37.6%
viability, T/C [2]: 28.2%
viability, T/C [3]: 30.4%
viability, T/C [4]: 28.5%
viability, T/C [5]: 27.2%
viability, T/C [6]: 30.4%
viability, T/C [7]: 39.1%
viability, T/C [8]: 25.8%
viability, T/C [9]: 25.8%
viability, T/C [10]: 22%
viability, T/C [11]: 29.8%
viability, T/C [12]: 28%
viability, T/C [13]: 38.3%
viability, T/C [14]: 29.6%
viability, T/C [15]: 29.6%
viability, T/C [16]: 27%
viability, T/C [17]: 26.9%
viability, T/C [18]: 25.5%
viability, T/C [19]: 39.1%
viability, T/C [20]: 30.3%
viability, T/C [21]: 29.2%
viability, T/C [22]: 25.8%
viability, T/C [23]: 27.6%
viability, T/C [24]: 29.3%
viability, T/C [25]: 39.5%
viability, T/C [26]: 34.5%
viability, T/C [27]: 29.7%
viability, T/C [28]: 27.1%
viability, T/C [29]: 26.1%
viability, T/C [30]: 27.7%
viability, T/C [31]: 44.2%
viability, T/C [32]: 31.5%
viability, T/C [33]: 29.5%
viability, T/C [34]: 28.9%
viability, T/C [35]: 29.6%
viability, T/C [36]: 29.8%
